Experimental data taken from patent publication US6900190B2, “Active substance combinations having insecticidal and acaricidal properties” (priority 2000, dated 2005).

System: common spider mite (Tetranychus urticae)
Assay: Tetranychus test (OP-resistant/spray treatment)
Format: in vivo
Conditions: single active compound, 0.32 ppm, spray treatment of infested bean plants (Phaseolus vulgaris), OP-resistant mites
Description: The expected action for a given combination of two active compounds can be calculated as follows, using the formula of S. R. Colby, Weeds 15 (1967), 20-22: […]
If • X is the efficacy, expressed as % of the untreated control, when employing active compound A at an application rate of m g/ha or in a concentration of m ppm, • Y is the efficacy, expressed as % of the untreated control, when employing active compound B at an application rate of n g/ha or in a concentration of n ppm and • E is the efficacy, expressed as % of the untreated control, when employing active compounds A and B at application rates of m and n g/ha or in a concentration of m and n ppm, then [formula]
If the actual insecticidal kill rate exceeds the calculated value, the action of the combination is superadditive, i.e. a synergistic effect is present. In this case, the actually observed insecticidal kill rate must exceed the value calculated using the above formula for the expected insecticidal kill rate (E).
Tetranychus test (OP-resistant/spray treatment) […]
After the desired period of time, the effect in % is determined. […] The kill rates determined are calculated using Colby's formula.

SMILES | Kill rate in % after 14 d
Cc1cc(C)c(C2=C(OC(=O)CC(C)(C)C)C3(CCCC3)OC2=O)c(C)c1 [Ex. (I-b-1)] | 0%
COP(N)(=O)SC (centres unmarked) [Metamidophos, methamidophos] | 0%
